Reference: patent US20260355196A1, “INHIBITORS AND DEGRADERS OF PIP4K PROTEIN” (Larkspur Biosciences, Inc., priority 2023, published 2026)

Target: T1, PIP4K2C (Homo sapiens, UniProt Q8TBX8)
T1 sequence (Q8TBX8 1-421): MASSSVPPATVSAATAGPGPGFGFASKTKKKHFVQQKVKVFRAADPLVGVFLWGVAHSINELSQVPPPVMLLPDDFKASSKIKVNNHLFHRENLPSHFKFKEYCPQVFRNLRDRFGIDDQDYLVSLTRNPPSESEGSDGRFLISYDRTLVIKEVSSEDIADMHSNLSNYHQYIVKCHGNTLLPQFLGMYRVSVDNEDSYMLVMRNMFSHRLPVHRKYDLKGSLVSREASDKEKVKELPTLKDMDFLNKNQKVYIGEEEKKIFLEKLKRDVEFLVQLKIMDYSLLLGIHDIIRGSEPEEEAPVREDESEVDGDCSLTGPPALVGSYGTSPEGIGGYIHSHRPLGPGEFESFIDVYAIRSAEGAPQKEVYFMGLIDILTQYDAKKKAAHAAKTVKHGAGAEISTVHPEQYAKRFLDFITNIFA
Assay: HiBiT PIP4K2C degradation assay in MOLT-4 cells (endogenous PIP4K2C C-terminally tagged with HiBiT)
Format: cell-based
Design: untagged in primary human PBMCs and monocyte-derived dendritic cells
Details: 24 hours incubation, MOLT-4, top concentration 10 micromolar; read-out: HiBIT-degradation MOLT4 PIP4k2C 24 hours DC50
In short: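 Luminescent HiBiT lytic readout of residual PIP4K2C-HiBiT (CRISPR knock-in, MOLT-4, phenol red-free RPMI-1640 + 10% FBS). Cells exposed 6 or 24 h at 37 C to compound, top 10 micromolar, 3-fold, 10 points, duplicate. Hill fit (Levenberg-Marquardt) gives DC50.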

Row | DC50 | Structure (SMILES)
1 | < 500 nM | Cn1c(=O)n(C2CCC(=O)NC2=O)c2ccc(C3CCN(CC4CCN(CC(=O)N5CCC[C@H](Nc6ncc(Cl)c(-c7cccc(-c8ccccc8)c7)n6)C5)CC4)CC3)cc21 (stereo partly drawn) [Compound 73, 3-(5-(1-((1-(2-((S)-3-((4-([1,1′-biphenyl]-3-yl)-5-chloropyrimidin-2-yl)amino)piperidin-1-yl)-2-oxoethyl)piperidin-4-yl)methyl)piperidin-4-yl)-3-methyl-2-oxo-2,3-dihydro-1H-benzo[d]imidazol-1-yl)piperidine-2,6-dione]
2 | < 500 nM | O=C1CCC(Nc2ccc(C3CCN(CCN4CCC(C(=O)N5CCC(Nc6ncc(Cl)c(-c7cccc(-c8ccccc8)c7)n6)CC5)CC4)CC3)cc2)C(=O)N1 (stereo not shown) [Compound 74, 3-((4-(1-(2-(4-(4-((4-([1,1′-biphenyl]-3-yl)-5-chloropyrimidin-2-yl)amino)piperidine-1-carbonyl)piperidin-1-yl)ethyl)piperidin-4-yl)phenyl)amino)piperidine-2,6-dione]
3 | < 500 nM | Cn1c(=O)n(C2CCC(=O)NC2=O)c2ccc(C3CCN(C4CCN(CC(=O)N5CCC[C@H](Nc6ncc(Cl)c(-c7cccc(-c8ccccc8)c7)n6)C5)CC4)CC3)cc21 (stereo partly drawn) [Compound 75, 3-(5-(1′-(2-((S)-3-((4-([1,1′-biphenyl]-3-yl)-5-chloropyrimidin-2-yl)amino)piperidin-1-yl)-2-oxoethyl)-[1,4′-bipiperidin]-4-yl)-3-methyl-2-oxo-2,3-dihydro-1H-benzo[d]imidazol-1-yl)piperidine-2,6-dione]
4 | < 500 nM | O=C1CCC(N2Cc3cc(C4CCN(CCN5CCC(C(=O)N6CCC[C@H](Nc7ncc(Cl)c(-c8cccc(-c9ccccc9)c8)n7)C6)CC5)CC4)ccc3C2=O)C(=O)N1 (stereo partly shown) [Compound 78]
5 | < 500 nM | O=C1CCC(N2Cc3cc(OC4CCN(C(=O)CN5CCC(C(=O)N6CCC(Nc7ncc(Cl)c(-c8cccc(-c9ccccc9)c8)n7)CC6)CC5)CC4)ccc3C2=O)C(=O)N1 (stereo not shown) [Compound 83, 3-(5-((1-(2-(4-(4-((4-([1,1′-biphenyl]-3-yl)-5-chloropyrimidin-2-yl)amino)piperidine-1-carbonyl)piperidin-1-yl)acetyl)piperidin-4-yl)oxy)-1-oxoisoindolin-2-yl)piperidine-2,6-dione]
6 | < 500 nM | O=C1CCC(Nc2ccc(N3CCC(N4CCN(CCC(=O)N5CCC(Nc6ncc(Cl)c(-c7cccc(-c8ccccc8)c7)n6)CC5)CC4)CC3)cc2)C(=O)N1 (stereo not shown) [Compound 84, 3-((4-(4-(4-(3-(4-((4-([1,1′-biphenyl]-3-yl)-5-chloropyrimidin-2-yl)amino)piperidin-1-yl)-3-oxopropyl)piperazin-1-yl)piperidin-1-yl)phenyl)amino)piperidine-2,6-dione]
7 | < 500 nM | O=C1CCC(N2Cc3cc(OC4CCN(CC5CCN(CC(=O)N6CCC(Nc7ncc(Cl)c(-c8cccc(-c9ccccc9)c8)n7)CC6)CC5)CC4)ccc3C2=O)C(=O)N1 (stereo not shown) [Compound 85, 3-(5-((1-((1-(2-(4-((4-([1,1′-biphenyl]-3-yl)-5-chloropyrimidin-2-yl)amino)piperidin-1-yl)-2-oxoethyl)piperidin-4-yl)methyl)piperidin-4-yl)oxy)-1-oxoisoindolin-2-yl)piperidine-2,6-dione]
8 | 500 to 1000 nM | O=C1CCC(N2Cc3cc(C4CCN(C5CCN(CCC(=O)N6CCC(Nc7ncc(Cl)c(-c8cccc(-c9ccccc9)c8)n7)CC6)CC5)CC4)ccc3C2=O)C(=O)N1 (stereo not shown) [Compound 86, 3-(5-(1′-(3-(4-((4-([1,1′-biphenyl]-3-yl)-5-chloropyrimidin-2-yl)amino)piperidin-1-yl)-3-oxopropyl)-[1,4′-bipiperidin]-4-yl)-1-oxoisoindolin-2-yl)piperidine-2,6-dione]
9 | < 500 nM | O=C1CCC(N2Cc3cc(OC4CCN(C5CCN(CC(=O)N6CCC(Nc7ncc(Cl)c(-c8cccc(-c9ccccc9)c8)n7)CC6)CC5)CC4)ccc3C2=O)C(=O)N1 (stereo not shown) [Compound 87, 3-(5-((1′-(2-(4-((4-([1,1′-biphenyl]-3-yl)-5-chloropyrimidin-2-yl)amino)piperidin-1-yl)-2-oxoethyl)-[1,4′-bipiperidin]-4-yl)oxy)-1-oxoisoindolin-2-yl)piperidine-2,6-dione]
10 | < 500 nM | O=C1CCC(N2Cc3cc(C4CCN(CCN5CCC(C(=O)N6CCC(Nc7ncc(Cl)c(-c8cccc(-c9ccccc9)c8)n7)CC6)CC5)CC4)ccc3C2=O)C(=O)N1 (stereo not shown) [Compound 88, 3-(5-(1-(2-(4-(4-((4-([1,1′-biphenyl]-3-yl)-5-chloropyrimidin-2-yl)amino)piperidine-1-carbonyl)piperidin-1-yl)ethyl)piperidin-4-yl)-1-oxoisoindolin-2-yl)piperidine-2,6-dione]
11 | < 500 nM | O=C1CCC(N2Cc3cc(OC4CCN(CCN5CCC(C(=O)N6CCC(Nc7ncc(Cl)c(-c8cccc(-c9ccccc9)c8)n7)CC6)CC5)CC4)ccc3C2=O)C(=O)N1 (stereo not shown) [Compound 89, 3-(5-((1-(2-(4-(4-((4-([1,1′-biphenyl]-3-yl)-5-chloropyrimidin-2-yl)amino)piperidine-1-carbonyl)piperidin-1-yl)ethyl)piperidin-4-yl)oxy)-1-oxoisoindolin-2-yl)piperidine-2,6-dione]
12 | < 500 nM | O=C1CCC(N2Cc3cc(OC4CCN(C5CCN(CCC(=O)N6CCC(Nc7ncc(Cl)c(-c8cccc(-c9ccccc9)c8)n7)CC6)CC5)CC4)ccc3C2=O)C(=O)N1 (stereo not shown) [Compound 90, 3-(5-((1′-(3-(4-((4-([1,1′-biphenyl]-3-yl)-5-chloropyrimidin-2-yl)amino)piperidin-1-yl)-3-oxopropyl)-[1,4′-bipiperidin]-4-yl)oxy)-1-oxoisoindolin-2-yl)piperidine-2,6-dione]
13 | < 500 nM | Cn1c(=O)n(C2CCC(=O)NC2=O)c2ccc(C3CCN(C4CCCN(CC(=O)N5CCC(Nc6ncc(Cl)c(-c7cccc(-c8ccc(F)cc8)c7)n6)CC5)C4)CC3)cc21 (stereo not shown) [Compound 275, 3-(5-(1′-(2-(4-((5-chloro-4-(4′-fluoro-[1,1′-biphenyl]-3-yl)pyrimidin-2-yl)amino)piperidin-1-yl)-2-oxoethyl)-[1,3′-bipiperidin]-4-yl)-3-methyl-2-oxo-2,3-dihydro-1H-benzo[d]imidazol-1-yl)piperidine-2,6-dione]
14 | < 500 nM | Cn1c(=O)n(C2CCC(=O)NC2=O)c2ccc(C3CCN(CC4CCN(CC(=O)N[C@H]5CC[C@H](Nc6ncc(Cl)c(-c7cccc(-c8ccc(F)cc8)c7)n6)CC5)CC4)CC3)cc21 (stereo partly drawn) [Compound 276, trans-N-(4-((5-chloro-4-(4′-fluoro-[1,1′-biphenyl]-3-yl)pyrimidin-2-yl)amino)cyclohexyl)-2-(4-((4-(1-(2,6-dioxopiperidin-3-yl)-3-methyl-2-oxo-2,3-dihydro-1H-benzo[d]imidazol-5-yl)piperidin-1-yl)methyl)piperidin-1-yl)acetamide]
15 | 500 to 1000 nM | Cn1nc(C2CCC(=O)NC2=O)c2ccc(C3CCN(CC4CCN(CC(=O)N5CCC(Nc6ncc(Cl)c(-c7cccc(-c8ccc(F)cc8)c7)n6)CC5)CC4)CC3)cc21 (stereo not shown) [Compound 277, 3-(6-(1-((1-(2-(4-((5-chloro-4-(4′-fluoro-[1,1′-biphenyl]-3-yl)pyrimidin-2-yl)amino)piperidin-1-yl)-2-oxoethyl)piperidin-4-yl)methyl)piperidin-4-yl)-1-methyl-1H-indazol-3-yl)piperidine-2,6-dione]
16 | < 500 nM | Cn1nc(C2CCC(=O)NC2=O)c2ccc(C3CCN(C(=O)C4(O)CCN(CC(=O)N5CCC(Nc6ncc(Cl)c(-c7cccc(-c8ccc(F)cc8)c7)n6)CC5)CC4)CC3)cc21 (stereo not shown) [Compound 278, 3-(6-(1-(1-(2-(4-((5-chloro-4-(4′-fluoro-[1,1′-biphenyl]-3-yl)pyrimidin-2-yl)amino)piperidin-1-yl)-2-oxoethyl)-4-hydroxypiperidine-4-carbonyl)piperidin-4-yl)-1-methyl-1H-indazol-3-yl)piperidine-2,6-dione]
17 | < 500 nM | Cn1c(=O)n(C2CCC(=O)NC2=O)c2ccc(C3CCN(CCC4CCN(C(=O)[C@@H]5CCC[C@H](Nc6ncc(Cl)c(-c7cccc(-c8ccccc8)c7)n6)C5)CC4)CC3)cc21 (stereo partly drawn) [Compound 280, 3-(5-(1-(2-(1-((1R,3S)-3-((4-([1,1′-biphenyl]-3-yl)-5-chloropyrimidin-2-yl)amino)cyclohexane-1-carbonyl)piperidin-4-yl)ethyl)piperidin-4-yl)-3-methyl-2-oxo-2,3-dihydro-1H-benzo[d]imidazol-1-yl)piperidine-2,6-dione]
18 | < 500 nM | Cn1c(=O)n(C2CCC(=O)NC2=O)c2ccc(C3CCN(CCC4CCN(C(=O)[C@H]5CCC[C@@H](Nc6ncc(Cl)c(-c7cccc(-c8ccccc8)c7)n6)C5)CC4)CC3)cc21 (stereo partly drawn) [Compound 281, 3-(5-(1-(2-(1-((1S,3R)-3-((4-([1,1′-biphenyl]-3-yl)-5-chloropyrimidin-2-yl)amino)cyclohexane-1-carbonyl)piperidin-4-yl)ethyl)piperidin-4-yl)-3-methyl-2-oxo-2,3-dihydro-1H-benzo[d]imidazol-1-yl)piperidine-2,6-dione]
19 | < 500 nM | O=C1CCC(c2ccc(N3CCC(O)(CC(=O)N4CCC(C(=O)N5CCC(Nc6ncc(Cl)c(-c7cccc(-c8ccc(F)cc8)c7)n6)CC5)CC4)CC3)c(F)c2)C(=O)N1 (stereo not shown) [Compound 282, 3-(4-(4-(2-(4-(4-((5-chloro-4-(4′-fluoro-[1,1′-biphenyl]-3-yl)pyrimidin-2-yl)amino)piperidine-1-carbonyl)piperidin-1-yl)-2-oxoethyl)-4-hydroxypiperidin-1-yl)-3-fluorophenyl)piperidine-2,6-dione]
